Test results as given in US20090117083A1, “IMMUNOMODULATORY ALKALOIDS” (M N L PHARMA LIMITED, priority 2004, published 2009).
Read-outs that look alike come from different tables or passages of the source.

Assays:
α-L-fucosidase = target: T1, α-L-fucosidase (Bos taurus, UniProt Q2KIM0); test: Glycosidase inhibition: α-L-fucosidase; type: biochemical, Bovine; conditions: read-out: % inhibition, α-fucosidase
T1 construct: purchased Sigma
T1 sequence (Q2KIM0 23-468): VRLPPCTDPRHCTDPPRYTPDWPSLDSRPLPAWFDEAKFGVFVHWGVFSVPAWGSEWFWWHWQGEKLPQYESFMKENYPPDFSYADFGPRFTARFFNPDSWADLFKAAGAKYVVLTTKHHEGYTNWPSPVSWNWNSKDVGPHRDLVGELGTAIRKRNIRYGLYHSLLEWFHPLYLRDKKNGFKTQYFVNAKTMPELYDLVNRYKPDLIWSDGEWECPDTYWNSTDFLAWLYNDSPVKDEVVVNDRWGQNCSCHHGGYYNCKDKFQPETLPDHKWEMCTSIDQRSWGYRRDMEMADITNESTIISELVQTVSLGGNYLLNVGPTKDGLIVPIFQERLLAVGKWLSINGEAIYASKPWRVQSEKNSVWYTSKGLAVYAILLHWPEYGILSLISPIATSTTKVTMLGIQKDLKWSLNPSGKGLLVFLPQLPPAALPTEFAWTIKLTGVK
Method: (§1) All enzymes were purchased from Sigma, as were the appropriate p-nitrophenyl substrates. Assays were carried out in microtitre plates. Enzymes were assayed in 0.1M citric acid/0.2M di-sodium hydrogen phosphate (McIlvaine) buffers at the optimum pH for the enzyme. All assays were carried out at 20° C. For screening assays the incubation assay consisted of 10 μl of enzyme solution, 10 μl of inhibitor solution (made up in water) and 50 μl of the appropriate 5 mM p-nitrophenyl substrate (3.57 mM final conc.) made up in McIlvaine buffer at the optimum pH for the enzyme.
(§2) The reactions were stopped with 0.4M glycine (pH 10.4) during the exponential phase of the reaction, which was determined at the beginning of the assay using blanks with water, which were incubated for a range of time periods to measure the reaction rate using 5 mM substrate solution. Endpoint absorbances were read at 405 nm with a Biorad microtitre plate reader (Benchmark). Water was substituted for the inhibitors in the blanks.

α-D-glucosidase [1] = target: T2, α-D-glucosidase (Oryza sativa subsp. japonica, UniProt Q653V7); test: Glycosidase inhibition: α-D-glucosidase, rice; type: biochemical, rice (Oryza sativa); conditions: read-out: % inhibition, α-gluc (rice)
T2 construct: purchased Sigma
Method: as §1, §2

α-D-glucosidase [2] = test: Glycosidase inhibition: α-D-glucosidase, Bacillus; type: biochemical, Bacillus stearothermophilus; conditions: 1 mg/ml
Method: as §1, §2

Naringinase = test: Glycosidase inhibition: Naringinase; type: biochemical, Penecillium decumbens; conditions: 1 mg/ml
Method: as §1, §2

α-D-glucosidase [3] = target: T3, α-D-glucosidase (Saccharomyces cerevisiae, UniProt P53341); test: Glycosidase inhibition (p-nitrophenyl substrate): α-D-glucosidase, yeast; type: biochemical, Saccharomyces cerevisiae (Baker's yeast); conditions: 1 mg/ml; read-out: % inhibition, α-gluc (yeast)
T3 construct: purchased Sigma
Method: as §1, §2

[4] = system: N-acetyl-β-D-glucosaminidase; test: Glycosidase inhibition: N-acetyl-β-D-glucosaminidase; type: biochemical, Bovine; conditions: 1 mg/ml
Method: as §1, §2

α-D-mannosidase = target: T4, α-D-mannosidase (Canavalia ensiformis, UniProt C0HJB3); test: Glycosidase inhibition: α-D-mannosidase; type: biochemical, Jack beans (Canavalia ensiformis); conditions: read-out: % inhibition, α-mannosidase
T4 construct: purchased Sigma
Method: All enzymes were purchased from Sigma, as were the appropriate p-nitrophenyl substrates. Assays were carried out in microtitre plates. Enzymes were assayed in 0.1M citric acid/0.2M di-sodium hydrogen phosphate (McIlvaine) buffers at the optimum pH for the enzyme. All assays were carried out at 20° C.
Endpoint absorbances were read at 405 nm with a Biorad microtitre plate reader (Benchmark). Water was substituted for the inhibitors in the blanks.

β-D-galactosidase = test: Glycosidase inhibition: β-D-galactosidase; type: biochemical, Bovine; conditions: 1 mg/ml
Method: as §1, §2

α-D-galactosidase = target: T5, α-D-galactosidase (Coffea arabica, UniProt Q42656); test: Glycosidase inhibition: α-D-galactosidase; type: biochemical, Green coffee beans (Coffea sp.); conditions: 1 mg/ml; read-out: % inhibition, α-galactosidase
T5 construct: purchased Sigma
Method: as §1, §2

β-D-glucosidase = test: Glycosidase inhibition: β-D-glucosidase, almond; type: biochemical, Almonds (Prunus sp.); conditions: 1 mg/ml
Method: as §1, §2

HSV-1 (SC16) = conditions: versus infected untreated group

T2 sequence (Q653V7 34-885): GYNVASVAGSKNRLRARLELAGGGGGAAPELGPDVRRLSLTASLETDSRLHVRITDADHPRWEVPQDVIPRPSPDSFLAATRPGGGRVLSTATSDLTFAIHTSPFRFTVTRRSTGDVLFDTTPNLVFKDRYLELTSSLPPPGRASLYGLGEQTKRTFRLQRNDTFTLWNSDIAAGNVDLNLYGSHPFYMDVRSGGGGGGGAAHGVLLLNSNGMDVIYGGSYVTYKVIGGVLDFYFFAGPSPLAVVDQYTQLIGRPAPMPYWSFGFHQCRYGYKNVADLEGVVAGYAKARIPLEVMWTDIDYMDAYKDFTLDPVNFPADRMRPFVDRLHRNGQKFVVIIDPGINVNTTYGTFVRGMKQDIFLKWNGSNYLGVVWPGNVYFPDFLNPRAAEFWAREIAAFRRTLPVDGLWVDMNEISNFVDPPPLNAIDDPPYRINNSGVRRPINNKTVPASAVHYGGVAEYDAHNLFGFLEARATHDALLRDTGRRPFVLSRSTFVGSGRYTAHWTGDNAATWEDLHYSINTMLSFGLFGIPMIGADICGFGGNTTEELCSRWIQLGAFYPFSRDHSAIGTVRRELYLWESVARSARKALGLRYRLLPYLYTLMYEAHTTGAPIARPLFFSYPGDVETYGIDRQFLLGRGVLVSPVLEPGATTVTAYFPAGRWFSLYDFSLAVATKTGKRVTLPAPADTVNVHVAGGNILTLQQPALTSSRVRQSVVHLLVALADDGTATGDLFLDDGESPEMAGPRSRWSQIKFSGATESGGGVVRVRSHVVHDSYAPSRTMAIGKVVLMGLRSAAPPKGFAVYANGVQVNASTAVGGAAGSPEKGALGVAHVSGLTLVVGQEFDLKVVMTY
T5 sequence (Q42656 16-378): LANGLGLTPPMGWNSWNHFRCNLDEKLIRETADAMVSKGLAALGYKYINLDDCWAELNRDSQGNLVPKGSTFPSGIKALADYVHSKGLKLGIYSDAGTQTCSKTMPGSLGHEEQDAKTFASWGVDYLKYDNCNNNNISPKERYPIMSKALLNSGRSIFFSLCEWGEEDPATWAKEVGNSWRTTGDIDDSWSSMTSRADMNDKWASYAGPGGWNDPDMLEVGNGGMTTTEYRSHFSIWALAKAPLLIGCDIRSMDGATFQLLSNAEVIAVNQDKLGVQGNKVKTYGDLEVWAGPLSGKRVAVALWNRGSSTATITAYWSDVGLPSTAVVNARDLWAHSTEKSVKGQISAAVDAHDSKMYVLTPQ
T3 sequence (P53341 whole entry): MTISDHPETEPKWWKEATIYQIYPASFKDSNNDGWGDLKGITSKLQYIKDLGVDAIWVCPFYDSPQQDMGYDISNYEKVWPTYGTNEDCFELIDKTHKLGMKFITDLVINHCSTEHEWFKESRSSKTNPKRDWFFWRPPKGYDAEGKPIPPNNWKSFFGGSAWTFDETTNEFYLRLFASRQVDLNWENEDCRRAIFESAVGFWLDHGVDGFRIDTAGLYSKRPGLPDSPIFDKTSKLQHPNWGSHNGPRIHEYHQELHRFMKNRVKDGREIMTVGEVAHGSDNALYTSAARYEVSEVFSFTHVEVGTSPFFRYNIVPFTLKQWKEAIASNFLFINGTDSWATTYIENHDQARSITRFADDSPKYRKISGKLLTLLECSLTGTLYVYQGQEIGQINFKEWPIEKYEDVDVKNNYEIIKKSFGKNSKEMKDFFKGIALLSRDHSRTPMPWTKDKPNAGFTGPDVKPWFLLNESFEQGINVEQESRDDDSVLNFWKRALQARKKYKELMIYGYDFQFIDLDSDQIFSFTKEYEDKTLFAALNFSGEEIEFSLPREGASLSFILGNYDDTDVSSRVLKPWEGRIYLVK
T4 sequence (C0HJB3 whole entry): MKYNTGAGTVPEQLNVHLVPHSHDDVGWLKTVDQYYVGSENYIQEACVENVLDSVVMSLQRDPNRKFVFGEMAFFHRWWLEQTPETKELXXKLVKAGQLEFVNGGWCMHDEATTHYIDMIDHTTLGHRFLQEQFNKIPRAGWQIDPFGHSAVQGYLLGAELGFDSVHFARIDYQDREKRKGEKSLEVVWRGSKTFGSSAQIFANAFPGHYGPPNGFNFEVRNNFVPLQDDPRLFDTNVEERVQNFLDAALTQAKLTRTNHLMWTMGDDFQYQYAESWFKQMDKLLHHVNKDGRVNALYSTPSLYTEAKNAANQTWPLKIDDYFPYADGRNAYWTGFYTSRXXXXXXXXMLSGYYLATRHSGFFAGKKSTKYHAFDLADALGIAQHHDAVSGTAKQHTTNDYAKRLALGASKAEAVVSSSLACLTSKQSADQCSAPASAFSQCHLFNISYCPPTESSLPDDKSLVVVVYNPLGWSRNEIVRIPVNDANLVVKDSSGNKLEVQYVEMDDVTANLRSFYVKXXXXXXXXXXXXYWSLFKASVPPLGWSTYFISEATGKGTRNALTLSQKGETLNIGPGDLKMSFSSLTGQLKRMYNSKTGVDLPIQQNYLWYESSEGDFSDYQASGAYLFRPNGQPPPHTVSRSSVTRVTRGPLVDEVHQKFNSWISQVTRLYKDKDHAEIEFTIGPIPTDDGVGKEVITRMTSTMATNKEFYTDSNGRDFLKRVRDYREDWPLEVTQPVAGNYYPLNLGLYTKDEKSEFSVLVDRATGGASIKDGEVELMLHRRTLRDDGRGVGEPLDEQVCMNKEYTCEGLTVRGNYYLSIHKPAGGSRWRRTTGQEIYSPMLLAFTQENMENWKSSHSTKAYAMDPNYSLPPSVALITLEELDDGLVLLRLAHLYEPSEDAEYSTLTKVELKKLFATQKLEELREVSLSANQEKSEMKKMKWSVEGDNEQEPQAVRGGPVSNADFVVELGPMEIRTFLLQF

| Compound | inhibition at 1000 µg/mL (α-L-fucosidase) [%] | inhibition at 1000 µg/mL (α-D-glucosidase [1]) [%] | % inhibition, α-gluc (Bacillus) (α-D-glucosidase [2]) [%] | % inhibition, Naringinase (Naringinase) [%] | inhibition at 1000 µg/mL (α-D-glucosidase [3]) [%] | % inhibition, N-acetyl-β-gluc [4] [%] | inhibition at 1000 µg/mL (α-D-mannosidase) [%] | % inhibition, β-galactosidase (β-D-galactosidase) [%] | inhibition at 1000 µg/mL (α-D-galactosidase) [%] | % inhibition, β-glucosidase (β-D-glucosidase) [%] | inhibition at 1000 µg/mL (α-L-fucosidase; 1 mg/ml) [%] | inhibition at 1000 µg/mL (α-D-glucosidase [1]; 1 mg/ml) [%] | ear thickness response (HSV-1 (SC16)) |
| --- | --- | --- | --- | --- | --- | --- | --- | --- | --- | --- | --- | --- | --- |
| O[C@@H]1[C@@H]2[C@@H](O)[C@H](O)[C@@H](O)CN2C[C@H]1O [Compound 64, 2-α-hydroxycastanospermine] | 4 | 12 | −15 | 76 | -6 | 21 | 21 | −3 | -9 | −1 | – | – | – |
| OC[C@H]1N[C@H](c2ccc(O)cc2)[C@@H](O)[C@@H]1O [Compound 36, PLB1] | – | – | 62 | 41 | 19 | 30 | 42 | 52 | 43 | 52 | 13 | 54 | – |
| CC(=O)OCC(CCn1cnc2cnc(N)nc21)COC(C)=O [famciclovir, reference compound] | – | – | – | – | – | – | – | – | – | – | – | – | almost completely negated |
| COc1cc([C@H]2N[C@H](CO)[C@@H](O)[C@@H]2O)ccc1O [Compound 65, PLB2] | – | – | 37 | 4 | 37 | 0 | -16 | 18 | 4 | 25 | -4 | 0 | – |
| O[C@@H]1[C@@H]2[C@@H](O)[C@H](O)[C@H](O)CN2C[C@H]1O [Compound 35, 2-α-hydroxy-6-epi-castanospermine] | 0 | 61 | −12 | 0 | -5 | 20 | 11 | −1 | -5 | −3 | – | – | – |
| OCCN1C[C@@H](O)[C@H](O)[C@H]1CO [Compound 55, N-hydroxyethyl-1,4-dideoxy-1,4-imino-D-arabinitol] | – | – | 15 | 44 | -3 | 6 | 5 | 13 | 4 | 44 | -7 | 71 | – |
| OCC1N[C@H](CO)[C@@H](O)[C@@H]1O (stereo partly shown) [DMDP, 2,6-dihydroxymethyl-3,4-dihydroxypyrrolidine] | – | – | 85 | 0 | 74 | 25 | 25 | 71 | -3 | 81 | -4 | 91 | – |
